Laboratory results published in patent US20240196889A1, “USE OF DI- AND TRI[…] ACIDS IN THE PREVENTION OF BIOFILM FORMATION” (priority 2020, published 2024).

How the values were obtained:
motA deletion mutant = test: Biofilm formation of motA deletion mutant; assay type: cell-based, Salmonella; conditions: addition of agaric acid to the deletion mutant
Salmonella biofilms = test: Tolerance assay of mature biofilms (H2O2 or ciprofloxacin, CFU); assay type: cell-based; conditions: grown 48 h with 100 μM
Description: It is well established that biofilms can be extremely tolerant to treatment with antimicrobials. To test whether the preventive addition of agaric acid renders Salmonella biofilms more susceptible to treatment with common disinfectants or antibiotics, biofilms grown in the presence and absence of agaric acid for 48 hour were treated for 1 h with 0.25% H2O2 or 1 μM ciprofloxacin. Hydrogen peroxide is a commonly used disinfectant in food industry [Meireles et al. (2016) Food Research International 82, 71-85; Meireles et al. (2016) Food Research International 82, 71-85], whereas ciprofloxacin is a fluoroquinolone antibiotic frequently used to treat Salmonella infections [Tabak et al. (2009) FEMS microbiology letters 301, 69-76].
To determine the tolerance of mature biofilms, biofilms were grown on microscopy glasses (75 mm×25 mm) placed vertical in a 50 ml falcon filled with 30 ml TSB 1/20. This set-up allows for easy transfer of mature biofilms as the top of vertical slide sticks out of the medium which allows to grab the slide with a pincer without damaging the biofilm. ONC of Salmonella were normalized to an OD600 of 3.2 and diluted 1/100 into the broth containing either a final concentration of 100 μM agaric or the corresponding amount of DMSO. […] The number of colony forming units (CFU) of biofilms was determined by plating.

P. aeruginosa PA14 = test: Antibiofilm assay (Calgary biofilm device); assay type: cell-based, Pseudomonas aeruginosa
Description: A static peg assay for the prevention of bacterial biofilm formation was used as described previously. A lid carrying 96 polystyrene pegs was fitted into a microtiter plate with a peg hanging into each well. Two-fold serial dilutions of the compounds in 100 μl liquid broth per well were prepared in the microtiter plate. Subsequently, an overnight culture was diluted 1:100 into the respective liquid broth, and 100 μl (˜10^6 cells) was added to each well of the microtiter plate, resulting in a total amount of 200 μl medium per well. After placing the lid on the microtiter plate, samples containing Salmonella, Pseudomonas or E. coli were incubated statically in TSB 1/20 for 48 h at 25° C., whereas S. aureus was incubated in undiluted TSB at 37° C. for 48 h. After incubation, the lid was removed from the microtiter plate and liquid culture was transferred to a new microtiter plate prior to determining the prior to determining the planktonic growth in each well via OD600 measurements using a Synergy MX multimode reader (Biotek, Winooski, VT). The pegs were washed once in 200 μl PBS and the remaining attached bacteria were stained for 30 min with 200 μl 0.1% crystal violet in an isopropanol-methanol-PBS solution (1:1:18). Excess stain was washed off by placing the pegs in a 96-well plate filled with 200 μl distilled water per well. Afterwards, the pegs were air dried for 30 min and the dye bound to the adherent cells dissolved into 200 μl 30% glacial acetic acid. The OD570 of each well was measured using a Synergy MX multimode reader. Data was analysed using the GraphPad Prism 6 software.

In the case of `CCCCCCCCCCCCCCCCC(C(=O)O)C(O)(CC(=O)O)C(=O)O` (stereo not shown) [Agaric acid, 2-hydroxynonadecane-1,2,3-tricarboxylic acid], the “biofilm formation of motA deletion mutant” value (motA deletion mutant) is reported as “did not further reduce biofilm formation”, the “susceptibility of biofilms to ciprofloxacin” value (Salmonella biofilms; then 1 μM ciprofloxacin for 1 h) is reported as “further increased the effect of a ciprofloxacin treatment, albeit not significantly” and the “susceptibility of biofilms to H2O2” value (Salmonella biofilms; then 0.25% H2O2 for 1 h) is reported as “significantly more susceptible to hydrogen peroxide”. The “planktonic growth (OD600)” value (P. aeruginosa PA14) was “inhibits”, the “biofilm inhibition versus planktonic growth inhibition” value (P. aeruginosa PA14; comparison of effective concentrations) was “planktonic growth is reduced at lower concentrations than biofilm inhibition” and the biofilm formation (P. aeruginosa PA14; crystal violet staining) was “inhibits”. For the same compound, the “biofilm inhibition versus planktonic growth inhibition at high concentrations” value (P. aeruginosa PA14; high concentrations of agaric acid) was “biofilm formation is inhibited to a higher extent than planktonic growth”.
